# Several values for one entry are separate records, joined by “and”; a condition that tells them apart may be missing. Equal entries are not always repeated.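 Dose response: 5 concentrations. Exposure: 48 h. Format: 96-well plates. Endpoint: linear interpolation; highest concentration if not reached. The concentration for 50% growth inhibition is given as GI50. TGI denotes the concentration required for complete inhibition of growth.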
# Tests used:
# Test in all cases: NCI-60 cell line screen, 48 h
# NCI-H23 lung = system: NCI-H23 lung
# UACC-62 melanoma = system: UACC-62 melanoma
# COLO 205 colon = system: COLO 205 colon
# UACC-257 melanoma = system: UACC-257 melanoma
# HL-60(TB) leukemia = system: HL-60(TB) leukemia
# SF-295 CNS = system: SF-295 CNS
# SNB-19 CNS = system: SNB-19 CNS
# MALME-3M melanoma = system: MALME-3M melanoma
# BT-549 breast = system: BT-549 breast
# NCI-H226 lung = system: NCI-H226 lung
# HCT-15 colon = system: HCT-15 colon
# OVCAR-5 ovarian = system: OVCAR-5 ovarian
# MDA-MB-435 = system: MDA-MB-435
Structure (SMILES),TGI (NCI-H23 lung) [µM],TGI (UACC-62 melanoma) [µM],TGI (COLO 205 colon),TGI (UACC-257 melanoma) [µM],TGI (HL-60(TB) leukemia) [µM],TGI (SF-295 CNS) [µM],TGI (SNB-19 CNS) [µM],TGI (MALME-3M melanoma) [µM],TGI (BT-549 breast) [µM],TGI (NCI-H226 lung) [µM],TGI (HCT-15 colon) [µM],TGI (OVCAR-5 ovarian) [µM],TGI (MDA-MB-435) [µM],GI50 (UACC-62 melanoma) [µM],GI50 (UACC-257 melanoma) [µM],GI50 (HL-60(TB) leukemia) [µM],GI50 (MALME-3M melanoma) [µM],GI50 (MDA-MB-435) [µM]
O=C1C=CC[C@H](/C=C/C[C@@H](O)C[C@H](O)/C=C/c2ccccc2)O1,23.5,29.4,20.4 µM,26.9,17.7,29.8,34.1,28.6,23.6,28.7,23,29.5,23.4,–,–,–,–,–
CCN(CC)c1nc(N(C)C)c2ccc(OC)cc2n1,> 100,24.8,21.6 µM,28.1,17.2,> 100,70,55.1,64.8,55.2,> 100,> 100,24.6,–,–,–,–,–
COc1ccc(C(=O)/C=C/c2ccc(OCC(=O)O)cc2)cc1,> 100,> 100,> 100 µM,–,> 100,> 100,> 100,> 100,> 100,–,> 100,> 100,> 100,–,–,–,–,–
CC1(C)CCCCCC(C)(CCCCCCCCCCCO)C1=O (stereo not given),30.3,29.4,30.9 µM,27,31.8,29.6,31.2,29.8,33.8,32.3,29.7,31.2,30.9,–,–,–,–,–
COc1cc(/C=C/c2sc3ccccc3[n+]2C)ccc1N(C)C,27.7,22.4,2.76 µM and 2.86 µM,22.9,3.88,> 100,26.8,19.8,3.7,50.6,> 100,40.5,22.5,10.4,8.32,1.75,5.85,10.2
COC1=CC(=O)c2c(O)ccc(O)c2C1=O,9.32,4.21,3.07 µM,2.88,23,4.35,18.8,0.357,6.17,43.8,6.91,35.7,1.34,–,–,–,–,–
O=C1OC2c3ccccc3C(=O)C2(c2ccccc2)N1c1ccccc1 (stereo not given),> 200,> 200,> 200 µM,> 200,> 200,> 200,> 200,> 200,> 200,> 200,> 200,> 200,> 200,–,–,–,–,–
COc1cc(CNC(=O)[C@H](Cc2ccc(O)cn2)NC(C)=O)cc(OC)c1,> 100,> 100,> 100 µM,> 100,> 100,> 100,> 100,> 100,> 100,> 100,> 100,> 100,> 100,–,–,–,–,–
N#CC(C#N)=Cc1ccc(C=C2SC3=C(SCCS3)S2)s1,95.3,> 100,> 100 µM,> 100,7.03,> 100,> 100,> 100,15.2,9.73,> 100,35.2,7.37,–,–,–,–,–
O=c1c2ccccc2c2c1c1c3ccccc3c(=O)c1c1c3ccccc3c(=O)c21,> 100,> 100,> 100 µM,> 100,> 100,> 100,> 100,> 100,> 100,> 100,> 100,> 100,> 100,–,–,–,–,–
COc1cc(S(=O)(=O)Nc2ccc(-c3csc(N4C(=O)C(C)SC4c4ccccc4O)n3)cc2)ccc1Cl (stereo not given),> 100,> 100,57 µM,–,56.4,> 100,> 100,35.5,> 100,> 100,> 100,> 100,> 100,–,–,–,–,–
CC(=O)O[C@H]1[C@H](OC(C)=O)[C@@H](CN=[N+]=[N-])OCO[C@@H]1CN=[N+]=[N-],> 100,> 100,> 100 µM,> 100,> 100,> 100,> 100,> 100,> 100,> 100,> 100,> 100,> 100,–,–,–,–,–
CN(C)CCCNC(=O)c1cc(NC(=O)c2cc(NC(=O)[C@H]3C[C@@H]3C(=O)Nc3cc(C(=O)Nc4cc(C(=O)NCCCN(C)C)n(C)c4)n(C)c3)cn2C)cn1C,> 100,–,> 100 µM,> 100,> 100,> 100,> 100,> 100,> 100,> 100,> 100,> 100,> 100,–,–,–,–,–
COc1ccc(-c2oc3cc(OC)c(OC)c(OC)c3c(=O)c2OC)cc1OC,> 100,> 100,> 100 µM,> 100,83.4,> 100,> 100,> 100,> 100,> 100,> 100,> 100,> 100,–,–,–,–,–
c1ccc(/N=N\Nc2ccc(-c3nc4ccccc4o3)cc2)nc1,> 100,> 100,49.2 µM,83,> 100,–,> 100,> 100,> 100,–,> 100,> 100,> 100,–,–,–,–,–
COP(=O)(OC)C(O)/C=C/c1ccco1 (stereo not given),> 100,> 100,> 100 µM,> 100,> 100,> 100,> 100,> 100,> 100,> 100,> 100,> 100,> 100,–,–,–,–,–
Cc1cc(C)nc(NS(=O)(=O)c2ccc(NNC(=O)c3cccc4c(NNc5ccc(S(=O)(=O)Nc6nc(C)cc(C)n6)cc5)c5ccccc5nc34)cc2)n1,51.6,58.7,46.3 µM,71.3,47,88.1,72.7,51.8,71.4,55.9,36.1,40.3,39.4,–,–,–,–,–
